What was measured:
PBP5/6a = molecular target: T1, PBP5/6a (Acinetobacter baumannii, UniProt G1C735); assay: bocillin-binding assay with SDS-PAGE; conditions: covalent; labelled compound; used to confirm identity of the purified protein
T1 construct: gene dacC; Triton X-100 extraction, Ni-NTA
T1 sequence (G1C735 20-382): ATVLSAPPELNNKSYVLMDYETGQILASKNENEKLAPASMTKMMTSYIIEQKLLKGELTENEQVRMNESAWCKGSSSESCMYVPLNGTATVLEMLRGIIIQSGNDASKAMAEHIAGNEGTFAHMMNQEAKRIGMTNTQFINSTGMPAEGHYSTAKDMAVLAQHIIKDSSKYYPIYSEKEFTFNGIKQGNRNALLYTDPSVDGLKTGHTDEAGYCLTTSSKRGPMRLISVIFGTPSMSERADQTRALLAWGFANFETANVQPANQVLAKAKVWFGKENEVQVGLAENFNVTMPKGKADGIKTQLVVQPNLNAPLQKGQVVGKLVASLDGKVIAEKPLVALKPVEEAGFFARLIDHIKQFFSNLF

PBP6b = molecular target: T2, PBP6b (Acinetobacter baumannii, UniProt A0ABX6CI93); assay: bocillin-binding assay with SDS-PAGE; conditions: covalent; labelled compound; used to confirm identity of the purified protein
T2 construct: gene dacD; Triton X-100 extraction, Ni-NTA
T2 sequence (A0ABX6CI93 22-439): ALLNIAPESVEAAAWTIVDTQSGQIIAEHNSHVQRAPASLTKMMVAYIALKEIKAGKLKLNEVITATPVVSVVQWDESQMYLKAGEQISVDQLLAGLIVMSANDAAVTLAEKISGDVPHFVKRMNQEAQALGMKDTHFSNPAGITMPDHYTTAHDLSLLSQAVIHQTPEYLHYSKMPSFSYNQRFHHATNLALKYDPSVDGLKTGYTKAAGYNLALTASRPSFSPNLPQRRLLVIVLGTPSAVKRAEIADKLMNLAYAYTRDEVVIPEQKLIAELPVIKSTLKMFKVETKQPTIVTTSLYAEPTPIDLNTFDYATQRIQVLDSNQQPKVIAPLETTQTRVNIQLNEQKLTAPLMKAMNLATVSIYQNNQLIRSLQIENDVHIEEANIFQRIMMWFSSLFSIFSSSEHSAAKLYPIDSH

Cc1cc(C)n2c1C=C1C=CC(CCC(=O)Nc3ccc(OCC(=O)N[C@@H]4C(=O)N5[C@@H]4SC(C)(C)[C@@H]5C(=O)O)cc3)=[N+]1[B-]2(F)F [bocillin]
bocillin-binding assay with SDS-PAGE (PBP5/6a): Protein purity and identity were confirmed by SDS-PAGE and bocillin-binding assays | bocillin-binding assay with SDS-PAGE (PBP6b): Protein purity and identity were confirmed by SDS-PAGE and bocillin-binding assays
